# From PMC3638464, “The transcriptional regulator CprK detects chlorination by combining direct and indirect readout mechanisms” (Philosophical Transactions of the Royal Society B: …, 2013)
# What was measured:
# CprK [1] = target: CprK (Desulfitobacterium hafniense, UniProt B8FW11, C200S); assay: cell-based; type: cell-based; conditions: for apparent Kd / n (Hill coefficient): in vivo, Hill fit; for apparent Kd: E. coli JM109 DE3, pGFPUV-DB7 + CprK C200S, effector concentration at half Fmax; for increase in fluorescence levels (in words): in vivo reporter; for increase in fluorescence levels (in words) / n (Hill coefficient): CprK C200S
# Description: Previous studies have shown that OCPA-dependent transcriptional activation by CprK can be monitored in Escherichia coli. To avoid any effects coupled to the redox state of the cell, we used a CprK C200S mutant as the basis for all our studies (referred to hereafter as CprK), as it was previously shown that oxidative disulfide bond formation involving C200 inactivates the regulator [23]. A region comprising 123 nucleotides of the upstream dehalobox promotor region of CprA1, containing CprK binding element dehalobox 7 (DB7), was cloned into pGFPUV in order to create a novel in vivo reporter system that makes use of an optimized variant of the green fluorescent protein (GFPUV) from Aequorea victoria. […] No significant increase in fluorescence levels could be detected in the presence of OCPA or similar compounds. […] By contrast, addition of 0.6 μM OCPA to the media leads to a nearly 10-fold increase in fluorescence levels, indicating CprK-mediated, OCPA-dependent transcriptional activation of the GFPUV gene occurs within the E. coli host. […] Our apparent Kd is the binding constant calculated as the concentration at which effector induces half Fmax (maximum fluorescence). […] In contrast to the direct measurement of formation of the CprK : OCPA complex for the in vitro experiment, the in vivo data probably report on the formation of the (CprK : OCPA : dehalobox : RNA polymerase) quaternary complex. […] It appears that under the conditions used for the pGFPUV-DB7-based system, the apparent Kd for OCPA is approximately 100-fold smaller than the established […] Kd values. […] It is important to keep in mind that transport processes could affect the intracellular OCPA concentrations across the membrane, although it would seem logical to assume this would affect OCPA and OCPA-like components in a similar manner. To confirm the apparent Kd value observed reflects inherent CprK affinity for the effector molecule, we measured the increase in fluorescence levels for a range of aromatic compounds.
# (§1) Overnight culture (150 μl) was plated onto 96-well optical bottom plates (Nunc). OCPA-related compounds (table 3) were then added to various end concentrations, and the plates placed on a rotary shaker at 37°C for 3 h. GFP fluorescence levels were measured using a Synergy HT microplate reader (BioTek) using a 400 nm, 30 nm bandpass excitation filter and a 508 nm, 20 nm bandpass emission filter. Data were collected using Gen5 v. 1.05 (Biotek) software. Fluorescence was normalized against cell density and measured by absorbance at 600 nm. The fluorescence ratio was plotted against effector concentration, and apparent Kd of binding was calculated using nonlinear curve fitting to a Hill plot.
# [2] = assigned value, source not stated; cited from earlier work
# CprK G85P = CprK G85P (Desulfitobacterium hafniense, UniProt B8FW11, C200S/G85P); assay: In vivo GFPUV-DB7 reporter assay, G85P CprK mutant; type: cell-based
# Method: (§2) Table 1 and figure 3 show the dependence of fluorescence levels on OCPA concentrations for Y76F, G85A, G85P and K133L CprK mutants. […] Compared with the apparent Kd of WT CprK (0.019 ± 0.002 μM) for OCPA, the Y76F mutant has an approximately 500-fold decreased affinity for OCPA. The G85P mutation leads to an even more dramatic 4500-fold decrease, but this is probably not only a consequence of removal of the backbone NH hydrogen bond, but also because of the increased size and restricted conformational freedom of the proline side chain. […] While mutations at position 76 or 85 retain some activity, mutation at position 133 leads to a complete loss of transcriptional activation response. This clearly establishes K133 as the key contributor to the polar network established with the phenol moiety.
# as §1, with “OCPA-related compounds (table 3) were then added to various end concentrations, and the plates placed on a rotary shaker at 37°C for 3 h.” left out, “Data were collected using Gen5 v. 1.05 (Biotek) software.” left out
# CprK [3] = conditions: cited from earlier work
# CprK G85A = CprK G85A (Desulfitobacterium hafniense, UniProt B8FW11, C200S/G85A); assay: In vivo GFPUV-DB7 reporter assay, G85A CprK mutant; type: cell-based
# Method: as §2
# as §1, with “OCPA-related compounds (table 3) were then added to various end concentrations, and the plates placed on a rotary shaker at 37°C for 3 h.” left out, “Data were collected using Gen5 v. 1.05 (Biotek) software.” left out
# CprK Y76F [4] = test system: CprK Y76F; set-up: method as in PMID 16803881; conditions: previous study; cited from earlier work
# CprK Y76F [5] = target: CprK Y76F (Desulfitobacterium hafniense, UniProt B8FW11, C200S/Y76F); assay: In vivo GFPUV-DB7 reporter assay, Y76F CprK mutant; type: cell-based
# Method: as §2
# as §1, with “OCPA-related compounds (table 3) were then added to various end concentrations, and the plates placed on a rotary shaker at 37°C for 3 h.” left out, “Data were collected using Gen5 v. 1.05 (Biotek) software.” left out
# CprK K133L = assay: In vivo GFPUV-DB7 reporter assay, K133L CprK mutant; type: cell-based, Desulfitobacterium hafniense
# Method: as §2
# as §1, with “OCPA-related compounds (table 3) were then added to various end concentrations, and the plates placed on a rotary shaker at 37°C for 3 h.” left out, “Data were collected using Gen5 v. 1.05 (Biotek) software.” left out
# CprK (Desulfitobacterium hafniense, UniProt B8FW11, C200S), sequence (B8FW11 entry or part of it C200S): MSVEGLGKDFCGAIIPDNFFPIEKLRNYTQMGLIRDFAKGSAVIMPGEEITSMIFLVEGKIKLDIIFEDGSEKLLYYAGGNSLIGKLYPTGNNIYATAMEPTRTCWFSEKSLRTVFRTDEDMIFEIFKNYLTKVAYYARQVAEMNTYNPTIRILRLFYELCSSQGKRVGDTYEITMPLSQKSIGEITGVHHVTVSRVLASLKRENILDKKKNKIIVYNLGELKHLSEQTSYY
# CprK G85P, sequence (B8FW11 entry or part of it G85P/C200S): as the sequence (B8FW11 entry or part of it C200S) above, with G85P counted along it
# CprK G85A, sequence (B8FW11 entry or part of it G85A/C200S): as the sequence (B8FW11 entry or part of it C200S) above, with G85A counted along it
# CprK Y76F (Desulfitobacterium hafniense, UniProt B8FW11, C200S/Y76F), sequence (B8FW11 entry or part of it Y76F/C200S): as the sequence (B8FW11 entry or part of it C200S) above, with Y76F counted along it
SMILES,apparent Kd (CprK [1]; 3 h),pKa value of R1 (phenol –OH) [2],n (Hill coefficient) (CprK [1]),also measured
Cc1cc([N+](=O)[O-])ccc1N [2-methyl-4-nitroaniline],no binding,–,–,–
Nc1ccc([N+](=O)[O-])cc1Cl [2-chloro-4-nitroaniline],no binding,–,–,increase in fluorescence levels (in words) (CprK [1]): No increase
"O=C(O)Cc1ccc(O)cc1 [HPA, 4-hydroxyphenylacetic acid]",–,–OH (10.2),2.1 ± 0.2,–
O=C(O)Cc1ccc(O)c(Br)c1 [3-bromo-4-hydroxyphenylacetic acid],–,–OH (8.5),3.2 ± 0.5,–
O=C(O)Cc1ccc(O)c(F)c1 [3-fluoro-4-hydroxyphenylacetic acid],–,–OH (8.8),1.8 ± 0.2,–
O=[N+]([O-])c1ccc(O)c(Br)c1 [2-bromo-4-nitrophenol],–,–OH (5.5),2.1 ± 0.1,–
O=C(O)Cc1cccc(Cl)c1 [3-chloro-phenylacetic acid],no binding,–,–,increase in fluorescence levels (in words) (CprK [1]): No increase
O=[N+]([O-])c1ccc(O)cc1 [4-nitrophenol],–,–OH (7.2),2.8 ± 0.2,–
"O=C(O)Cc1ccc(O)c(Cl)c1 [OCPA, 3-chloro-4-hydroxyphenylacetic acid]",–,–OH (8.5),2.0 ± 0.2,"Kd (CprK G85P): 86.7 ± 5.8 µM; n (Hill coefficient) (CprK G85P; in vivo, G85P mutant): 1.9 ± 0.3; increase of CprK affinity in the presence of a DNA promoter fragment (CprK [3]): approximately 10 fold; difference in affinity between OCPA and HPA (CprK [3]; estimated from indirect in vitro measurements): ~10^4; Kd (CprK [3]; previously reported in vitro): 0.8 to 3.5 µM; Kd (CprK G85A): 1.03 ± 0.06 µM; n (Hill coefficient) (CprK G85A; in vivo, G85A mutant): 1.5 ± 0.1; fold induction at 0.6 µM (CprK [1]; 3 h, read-out: increase in fluorescence levels): ~10; apparent Kd smaller than established Kd values (CprK [1]; pGFPUV-DB7 system vs earlier Kd values): approximately 100 fold; decrease in the Kd caused by the Y76F mutation (CprK Y76F [4]): approximately 10 fold; Kd (CprK Y76F [5]): 10.2 ± 0.9 µM; n (Hill coefficient) (CprK Y76F [5]; in vivo, Y76F mutant): 1.6 ± 0.1; transcriptional activation response (in words) (CprK K133L): complete loss; Kd (apparent) (CprK K133L; in vivo): no response"
O=[N+]([O-])c1ccc(O)c(F)c1 [2-fluoro-4-nitrophenol],–,–OH (5.7),4.7 ± 0.6,–
O=[N+]([O-])c1ccc(O)c(Cl)c1 [2-chloro-4-nitrophenol],–,–,1.7 ± 0.2,–
Nc1ccc([N+](=O)[O-])cc1 [4-nitroaniline],no binding,–,–,–
Cc1cc([N+](=O)[O-])ccc1O [2-methyl-4-nitrophenol],–,–OH (7.4),1.8 ± 0.1,difference between o-methyl-p-nitrophenol and p-nitrophenol (apparent Kd) (CprK [1]; apparent in vivo Kd): approximately sevenfold
